# Experimental data reported in article PMC7763418 (Journal of the American Heart Association: Cardiovascular …, 2020).
# Experiments:
# [1] = tested on: healthy male participants; experiment: Heart rate, arterial line/ECG recording; assay type: in vivo, human; conditions: days B and C, after 15 min of esmolol 1.25 mg/kg bolus+[…] iv
# [2] = tested on: healthy male participants; experiment: Relative stroke volume; assay type: in vivo, human; conditions: esmolol 1.25 mg/kg bolus+[…] iv
# cardiac beta 1 receptors = conditions: esmolol dose used (1.25 mg/kg bolus+[…]); cited from earlier work
smiles,measurement,setting,value
COC(=O)CCc1ccc(OCC(O)CNC(C)C)cc1 (stereo not shown) [esmolol],Average heart rate at baseline (0 min),[1],58.2 bpm
same,Reduction of mean stroke volume from −15 minutes to baseline,[2]; day B,13.7%
same,Reduction of mean stroke volume from −15 minutes to baseline,"[2]; day C, before glucagon",25.8%
same,Cardiac beta 1 receptors blocked,cardiac beta 1 receptors,> 85%
